Measurements published in patent US12553889B2, “Small molecules targeting the intrinsically disordered structural ensemble of α-synuclein protect against diverse α-synuclein mediated dysfunctions” (The Regents of the University of California, priority 2019, dated 2026).
Entries after “also recorded” stand apart in the source; their conditions may differ.

Assays:
αSyn [1] = target: T1, αSyn (Homo sapiens, UniProt P37840, Q99C); experiment: αSyn FRET (Cy3/Cy5) oligomerization assay; type: biochemical
T1 construct: made in house; host or cells: E. coli BL21(DE3), pET28b
Procedure: For the FRET oligomerization assay, 10 μM each of αSyn-Q-C(position number)Cy3 (donor) and αSyn-Q(position number)C-Cy5 (acceptor) in PBS (pH 7.4) were dispensed into black/clear bottom 384-well plates (Greiner) using a Mantis liquid handler (Formulatrix). The plate was sealed with AbsorbMax film (Sigma-Aldrich) and incubated at 37° C. The FRET between donor and acceptor was measured on a SpectraMax M5 Microplate Reader (Molecular Devices). An excitation wavelength of 525 nm for αSyn-Cy3 (donor), and emission wavelengths of 570 nm and 670 nm for αSyn-Cy3 (donor) and αSyn-Cy5 (acceptor) respectively were used. The plate reader PTM sensitivity is set to medium and assays executed without mixing. The signals are read at 10 minute intervals for 99 hours at 37° C. Efficiency of FRET was calculated as follows: EFRET=IAcceptor/IDonor, in which IAcceptor is acceptor emission intensity, IDonor is donor emission intensity.
• 1. Single point mutation (x to Cys) is introduced to αSyn. • 2. Cy3 and Cy5 are used as FRET probes Brief Procedure: Label αSyn Mutant with Cy3/Cy5 Dyes: • Incubate purified αSyn Q99C with 1 mM TCEP at 4° C. for 3 hours to reduce Cys; • Dissolve Cy3-maleimide or Cy5-maleimide (GE Healthcare) in DMSO; • Add 10× molar excess of dye to αSyn Q99C; • Incubate at 4° C. overnight; • Remove excess dye by HiTrap Desalting column (GE Healthcare); FRET Assay • Mix the following: • αSyn-Q99C-Cy3 5 uM • αSyn-Q99C-Cy5 5 uM
Measure the fluorescence from Cy3 and Cy5 at 37° C. for 99 hours on a plate reader (SpectraMax M5, Molecular Devices).

αSyn [2] = target: αSyn (Homo sapiens, UniProt P37840); experiment: αSyn split Gaussia luciferase (GLuc) biochemical oligomerization assay; design: His tag; made in house; host or cells: E. coli BL21(DE3), pET28b; conditions: 24 hours; for impact on αSyn oligomerization (GLuc complementation): 100 μM compound, 12.5 μM of each tagged synuclein; for impact on αSyn oligomerization relative to other active compounds (GLuc): 100 μM
Procedure: A mixture of purified αSyn fused at its C-terminus with either the N-Terminal or the C-terminal half of Gaussia luciferase was incubated and the formation of oligomers monitored by reconstituted luciferase activity (FIG. 9, GLuc). For comparison, fibrillization of αSyn was measured in parallel samples by measuring the fluorescence of the dye Thioflavin T (ThT) as is widely used in the field (FIG. 9, ThT). […] The αSyn-Split Gluc tags have been used to detect αSyn oligomerization in cell models via transfection and expression of DNA encoding αSyn fused to split Gluc tags, but it has not previously been used in a biochemical assay using purified proteins as shown here.
Five to […] each of αSyn-GLuc1 and μM αSyn-GLuc2, (N-terminal or C-terminal fragment of GLuc fused to the C-terminus of αSyn see Example 6) in a buffer consisting of 1 mM MgCl2, 1 mM ADP, 50 mM Na3PO4, 0.02% NaN3 and 1 mM DTT at pH 7.4, were incubated at 37° C. in a thermal cycler (BioRad DNA Engine PTC-200). In experiments in which fibrillization was also measured, samples were incubated in an air incubator with shaking at 1000 rpm. At various time points (typically 0, 6, 12, and 24 hours), Gaussia luciferase activity was quantified using a BioLux Gaussia Luciferase Assay Kit (NEB) according to the manufacturer's instructions and read on a SpectraMax M5 Microplate Reader (Molecular Devices) with 5 minute delay after the addition of substrate and 3 sec integration time reading each well.
• Mix αSyn-GLuc1 and αSyn-GLuc2 at a final concentration of 10 μM each; • Incubate at 37° C. with shaking at 1000 rpm for 120 hours; • Take aliquot at 0/3/6/12/24/48/72/96/120 hour for analysis by Gaussia luciferase activity assay and ThT assay Methods Gaussia Luciferase Assay (According to BioLux Kit Manual): • 1. Thaw reaction buffer and stabilizer; • 2. Make working solution, for each reaction: • Reaction Buffer 50 μL • BioLux Stabilizer 8 μL • Substrate 0.5 μL • 3. Mix well and wait 5 minutes to use the working solution; • 4. Take out 10 μL GLuc sample and put on white 96-well plates; • 5. Add 50 μL working solution, mix well and wait 3.5 minutes; • 6. Read on the plate reader at 480 nm ThT Assay: • 1. Dilute 1 mM Thioflavin T (M.W. 319 Da) stock in PBS to 25 μM final concentration (1:40 dilution) • 2. Pipet 95 μL of the 25 μM Thioflavin T per well of 384 well plate. • 3. Pipet αSyn fibril up and down to mix, add 5 μL to wells with Thioflavin T • 4. For controls, include 5 μL PBS alone. • 5. Incubate at room temperature for 15 min to 1 hour. • 6. Read plate (excitation 440 nm, emission 482 nm). Method Used to Screen 66 HT-CM-SPR Compounds Using αSyn-GLuc:
Reaction mix is added into 96-well PCR plate containing:
Reaction: • αSyn-GLuc1 12.5 μM • αSyn-GLuc2 12.5 μM • Compound 0/12.5/25/50/75/100 μM in DMSO 0.2% • Negative: DMSO 0.2%: • 37 degree (PCR), no shaking

SMILES	activity in FRET αSyn oligomerization assay (αSyn [1])	impact relative to 576755 in FRET αSyn oligomerization assay (αSyn [1])	impact on αSyn oligomerization (GLuc complementation) (αSyn [2])	impact on αSyn oligomerization relative to other active compounds (GLuc) (αSyn [2])
CNC(=O)c1cc(O)ccc1N [Compound 576755, 2-amino-5-hydroxy-N-methylbenzamide]	block αSyn oligomerization	–	impair αSyn oligomerization; also recorded: demonstrated inhibition of αSyn oligomerization	–
Cc1c(-c2csc(NC(C(N)=O)C3CCNCC3)n2)sc2ccccc12 (stereo not shown) [Compound 573437, 2-((4-(3-methylbenzo[b]thiophen-2-yl)thiazol-2-yl)amino)-2-(piperidin-4-yl)acetamide]	block αSyn oligomerization	–	impair αSyn oligomerization	–
CNC(=O)c1cc(O)ccc1N(C)C [Compound 581823, 2-dimethylamino-5-hydroxy-N-methylbenzamide]	also active	less impact than 576755	demonstrated inhibition of αSyn oligomerization	less impact than 576755

The next lines start with results.

activity in FRET αSyn oligomerization assay (αSyn [1])	impact relative to 576755 in FRET αSyn oligomerization assay (αSyn [1])	SMILES	impact on αSyn oligomerization (GLuc complementation) (αSyn [2])	impact on αSyn oligomerization relative to other active compounds (GLuc) (αSyn [2])
also active	–	CNC(=O)c1cc(O)ccc1NC [Compound 581858, 2-methylamino-5-hydroxy-N-methylbenzamide]	demonstrated inhibition of αSyn oligomerization	more impact on αSyn oligomerization than 576755 and 581823
also active	–	CNC(=O)c1cc(O)ccc1O [Compound 583854, 2,5-dihydroxy-N-methylbenzamide]	demonstrated inhibition of αSyn oligomerization	more impact on αSyn oligomerization than 576755 and 581823
block αSyn oligomerization	–	CNC(=O)CN(C(=O)Cc1noc2ccccc12)C(C)c1ccc(Cl)cc1 (stereo not shown) [Compound 582032, 2-(benzo[d]isoxazol-3-yl)-N-(1-(4-chlorophenyl)ethyl)-N-(2-(methylamino)-2-oxoethyl)acetamide]	impair αSyn oligomerization	–
